Assay results as given in patent US7880007B2, “Bicyclic substituted phenyl piperidine modulators of muscarinic receptors” (Vertex Pharmaceuticals Incorporated, priority 2004, dated 2011).

Legend:
Type in all cases: cell-based
M1 muscarinic receptor = target: T1, M1 muscarinic receptor (Homo sapiens, UniProt P11229); assay: Functional mobilization of intracellular calcium (FLIPR), M1-CHO cells; conditions: for Emax: 100% efficacy is the maximum response obtained with the Carbachol control; for M1 Activity: M1-CHO cells, calcium mobilization (FLIPR)
T1 construct: expressed in transfected cells; host or cells: CHO (M1-CHO)
T1 sequence (P11229 1-460): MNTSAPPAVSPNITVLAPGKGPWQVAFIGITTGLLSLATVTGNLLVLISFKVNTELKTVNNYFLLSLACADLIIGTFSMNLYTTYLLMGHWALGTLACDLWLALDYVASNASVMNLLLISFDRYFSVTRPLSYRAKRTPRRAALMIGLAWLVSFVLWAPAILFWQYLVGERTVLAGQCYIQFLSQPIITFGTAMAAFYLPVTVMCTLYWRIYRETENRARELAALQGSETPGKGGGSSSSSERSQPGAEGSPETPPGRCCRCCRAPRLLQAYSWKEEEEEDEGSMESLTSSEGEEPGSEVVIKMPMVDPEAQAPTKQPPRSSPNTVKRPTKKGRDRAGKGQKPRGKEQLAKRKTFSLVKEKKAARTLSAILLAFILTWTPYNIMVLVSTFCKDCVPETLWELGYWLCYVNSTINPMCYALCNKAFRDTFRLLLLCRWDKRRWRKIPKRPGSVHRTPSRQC
Method in brief: (§1)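 Calcium mobilisation read by FLIPR over 60 s (ex 488/em 540 nm) in recombinant muscarinic CHO lines loaded with calcium dye plus 1 mM probenecid. Compounds tested as agonists alone, or as inhibitors against EC80 carbachol after 15 min pre-incubation or co-addition; 0.5% DMSO; efficacy scaled to carbachol maximal response.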

M2 muscarinic receptor = target: T2, M2 muscarinic receptor (Homo sapiens, UniProt P08172); assay: Functional mobilization of intracellular calcium (FLIPR), M2-CHO cells; conditions: for Emax: 100% efficacy is the maximum response obtained with the Carbachol control; for M2 Activity: M2-CHO cells, calcium mobilization (FLIPR)
T2 construct: expressed in transfected cells; host or cells: CHO (M2-CHO)
T2 sequence (P08172 1-466): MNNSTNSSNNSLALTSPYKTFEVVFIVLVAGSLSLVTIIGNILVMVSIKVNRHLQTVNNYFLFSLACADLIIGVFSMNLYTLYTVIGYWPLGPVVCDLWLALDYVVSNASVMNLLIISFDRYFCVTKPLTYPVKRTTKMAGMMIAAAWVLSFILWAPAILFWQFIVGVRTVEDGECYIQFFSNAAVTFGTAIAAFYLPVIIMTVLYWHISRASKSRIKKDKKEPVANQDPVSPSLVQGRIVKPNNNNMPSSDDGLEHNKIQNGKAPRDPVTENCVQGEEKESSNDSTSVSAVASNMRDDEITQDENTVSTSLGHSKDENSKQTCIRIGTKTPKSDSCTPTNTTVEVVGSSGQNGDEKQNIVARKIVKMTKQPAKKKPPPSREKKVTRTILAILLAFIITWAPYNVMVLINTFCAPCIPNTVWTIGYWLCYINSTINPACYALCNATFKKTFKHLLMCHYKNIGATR
Method in brief: as §1

M3 muscarinic receptor = target: T3, M3 muscarinic receptor (Homo sapiens, UniProt P20309); assay: Functional mobilization of intracellular calcium (FLIPR), M3-CHO cells; conditions: for Emax: 100% efficacy is the maximum response obtained with the Carbachol control; for M3 Activity: M3-CHO cells, calcium mobilization (FLIPR)
T3 construct: expressed in transfected cells; host or cells: CHO (M3-CHO)
T3 sequence (P20309 whole entry): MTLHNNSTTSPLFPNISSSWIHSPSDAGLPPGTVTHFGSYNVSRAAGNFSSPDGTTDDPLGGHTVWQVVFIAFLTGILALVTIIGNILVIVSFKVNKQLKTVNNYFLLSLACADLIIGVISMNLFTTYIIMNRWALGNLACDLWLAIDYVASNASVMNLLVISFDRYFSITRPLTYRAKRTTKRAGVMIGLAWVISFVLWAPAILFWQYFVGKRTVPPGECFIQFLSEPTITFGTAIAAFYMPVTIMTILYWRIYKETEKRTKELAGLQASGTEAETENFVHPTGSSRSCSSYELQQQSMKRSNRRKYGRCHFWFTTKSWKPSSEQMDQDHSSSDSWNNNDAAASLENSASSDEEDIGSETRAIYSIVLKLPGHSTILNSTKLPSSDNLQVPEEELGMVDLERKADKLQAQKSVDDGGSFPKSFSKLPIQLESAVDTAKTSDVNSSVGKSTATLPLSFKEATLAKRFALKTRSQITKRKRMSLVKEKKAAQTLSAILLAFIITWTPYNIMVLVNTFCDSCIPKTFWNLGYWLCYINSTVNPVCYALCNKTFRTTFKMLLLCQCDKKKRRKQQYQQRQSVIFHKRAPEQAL
Method in brief: as §1

M4 muscarinic receptor = target: T4, M4 muscarinic receptor (Homo sapiens, UniProt P08173); assay: Functional mobilization of intracellular calcium (FLIPR), M4-CHO cells; conditions: for Emax: 100% efficacy is the maximum response obtained with the Carbachol control; for M4 Activity: M4-CHO cells, calcium mobilization (FLIPR)
T4 construct: expressed in transfected cells; host or cells: CHO (M4-CHO)
T4 sequence (P08173 1-479): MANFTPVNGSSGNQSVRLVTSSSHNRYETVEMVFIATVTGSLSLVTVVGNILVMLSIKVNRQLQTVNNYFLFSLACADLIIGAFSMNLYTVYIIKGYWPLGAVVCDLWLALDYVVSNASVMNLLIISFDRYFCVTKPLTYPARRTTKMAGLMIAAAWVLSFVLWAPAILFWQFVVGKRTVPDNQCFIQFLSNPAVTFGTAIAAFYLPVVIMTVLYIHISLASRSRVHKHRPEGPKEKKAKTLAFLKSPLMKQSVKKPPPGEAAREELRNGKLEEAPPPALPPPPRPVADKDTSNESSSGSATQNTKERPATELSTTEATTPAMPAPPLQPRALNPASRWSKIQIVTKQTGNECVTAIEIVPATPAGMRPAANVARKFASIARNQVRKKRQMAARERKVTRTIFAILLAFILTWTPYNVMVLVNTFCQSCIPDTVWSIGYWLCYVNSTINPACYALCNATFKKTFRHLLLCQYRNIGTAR
Method in brief: as §1

| Structure (SMILES) | Emax (M1 muscarinic receptor) [%] | M1 Activity (M1 muscarinic receptor) | Emax (M2 muscarinic receptor) [%] | M2 Activity (M2 muscarinic receptor) | Emax (M3 muscarinic receptor) [%] | M3 Activity (M3 muscarinic receptor) | Emax (M4 muscarinic receptor) [%] | M4 Activity (M4 muscarinic receptor) |
| --- | --- | --- | --- | --- | --- | --- | --- | --- |
| COc1ccc(Cl)cc1C1(F)CCN(C2CCCCC2)CC1 [Compound 409] | 25 to 100 | + (activity was measured to be greater than 5.0 μM) | 25 to 100 | + (activity was measured to be greater than 5.0 μM) | < 25 | + (activity was measured to be greater than 5.0 μM) | 25 to 100 | ++ (activity was measured to be from 1.0 μM to 5.0 μM) |
| COc1ccccc1C1CCN(C2CCC(OC(=O)c3ccccc3)CC2)CC1 (stereo not drawn) [Compound 410] | < 25 | + (activity was measured to be greater than 5.0 μM) | < 25 | + (activity was measured to be greater than 5.0 μM) | < 25 | + (activity was measured to be greater than 5.0 μM) | 25 to 100 | ++ (activity was measured to be from 1.0 μM to 5.0 μM) |
| CCOC(=O)N1CCC(CN2CCC(c3cc(-c4ccc(S(=O)(=O)N5CCCC5)cc4)ccc3OC)CC2)CC1 [Compound 411] | 25 to 100 | +++ (activity was measured to be less than 1.0 μM) | < 25 | + (activity was measured to be greater than 5.0 μM) | < 25 | + (activity was measured to be greater than 5.0 μM) | < 25 | +++ (activity was measured to be less than 1.0 μM) |
| COc1ccc(-c2ccsc2)cc1C1CCN([C@@H]2C[C@H]3CC[C@H]2C3)CC1 [Compound 414] | < 25 | + (activity was measured to be greater than 5.0 μM) | < 25 | + (activity was measured to be greater than 5.0 μM) | < 25 | + (activity was measured to be greater than 5.0 μM) | 25 to 100 | ++ (activity was measured to be from 1.0 μM to 5.0 μM) |
| N#Cc1ccc(C2CCN(C3CCOCC3)CC2)cc1 [Compound 415] | < 25 | + (activity was measured to be greater than 5.0 μM) | < 25 | + (activity was measured to be greater than 5.0 μM) | < 25 | + (activity was measured to be greater than 5.0 μM) | 25 to 100 | + (activity was measured to be greater than 5.0 μM) |
| COc1ccc(C(=O)c2ccoc2)cc1C1CCN([C@@H]2C[C@H]3CC[C@H]2C3)CC1 [Compound 416] | < 25 | + (activity was measured to be greater than 5.0 μM) | < 25 | + (activity was measured to be greater than 5.0 μM) | < 25 | + (activity was measured to be greater than 5.0 μM) | 25 to 100 | ++ (activity was measured to be from 1.0 μM to 5.0 μM) |
| CCON=C1CCC(N2CCC(c3cc(Cl)ccc3OC)CC2)CC1 (stereo not drawn) [Compound 417, 4-(4-(5-chloro-2-methoxyphenyl)piperidin-1-yl)cyclohexanone O-ethyl oxime] | 25 to 100 | +++ (activity was measured to be less than 1.0 μM) | 25 to 100 | +++ (activity was measured to be less than 1.0 μM) | 25 to 100 | + (activity was measured to be greater than 5.0 μM) | > 100 | +++ (activity was measured to be less than 1.0 μM) |
| COc1ccc(Cl)cc1C1(F)CCN(CC2CCOCC2)CC1 [Compound 418] | < 25 | ++ (activity was measured to be from 1.0 μM to 5.0 μM) | < 25 | + (activity was measured to be greater than 5.0 μM) | < 25 | + (activity was measured to be greater than 5.0 μM) | 25 to 100 | ++ (activity was measured to be from 1.0 μM to 5.0 μM) |
| COc1ccccc1-c1ccccc1C1CCN([C@H]2C[C@H]3CC[C@H]2C3)CC1 [Compound 420] | 25 to 100 | + (activity was measured to be greater than 5.0 μM) | < 25 | + (activity was measured to be greater than 5.0 μM) | < 25 | + (activity was measured to be greater than 5.0 μM) | 25 to 100 | ++ (activity was measured to be from 1.0 μM to 5.0 μM) |
| COc1ccccc1C(=O)COc1ccccc1C1CCN([C@H]2C[C@H]3CC[C@H]2C3)CC1 [Compound 422] | 25 to 100 | ++ (activity was measured to be from 1.0 μM to 5.0 μM) | 25 to 100 | ++ (activity was measured to be from 1.0 μM to 5.0 μM) | < 25 | + (activity was measured to be greater than 5.0 μM) | 25 to 100 | +++ (activity was measured to be less than 1.0 μM) |
| COc1ccc(-c2ccc(C)cc2)cc1C1CCN([C@H]2C[C@H]3CC[C@H]2C3)CC1 [Compound 423] | < 25 | + (activity was measured to be greater than 5.0 μM) | < 25 | + (activity was measured to be greater than 5.0 μM) | < 25 | + (activity was measured to be greater than 5.0 μM) | 25 to 100 | + (activity was measured to be greater than 5.0 μM) |
| Cc1ccc(F)cc1C1CCN(CC2C[C@H]3CC[C@H]2C3)CC1 (stereo partly drawn) [Compound 424] | 25 to 100 | ++ (activity was measured to be from 1.0 μM to 5.0 μM) | 25 to 100 | ++ (activity was measured to be from 1.0 μM to 5.0 μM) | < 25 | + (activity was measured to be greater than 5.0 μM) | 25 to 100 | +++ (activity was measured to be less than 1.0 μM) |
